Data taken from ChEMBL document CHEMBL4052698, “Design, synthesis and SAR of a novel series of heterocyclic phenylpropanoic acids as GPR120 agonists” (Bioorg Med Chem Lett, 2017).
pEC50: −log10 of the molar value. Each block holds one molecule with its values, some of them ahead of it. Calls of active or inactive are those of the source. The calls are words filed in the database; no cut-off is given here.

Experiments:
[1] = target: Free fatty acid receptor 4 (Homo sapiens, UniProt Q5NUL3); experiment: Agonist activity at human GPR120 short splice variant expressed in HEK293 cells assessed as increase in intracellular calcium flux by Fluo-4 NW dye based FLIPR assay; assay type: functional, cell-based
[2] = target: T1, Free fatty acid receptor 4 (Homo sapiens, UniProt Q5NUL3); experiment: Agonist activity at human GPR120 expressed in CHO-K1 cells assessed as […] by DiscoveRx PathHunter beta-arrestin assay; assay type: functional, cell-based
T1 sequence (Q5NUL3 whole entry): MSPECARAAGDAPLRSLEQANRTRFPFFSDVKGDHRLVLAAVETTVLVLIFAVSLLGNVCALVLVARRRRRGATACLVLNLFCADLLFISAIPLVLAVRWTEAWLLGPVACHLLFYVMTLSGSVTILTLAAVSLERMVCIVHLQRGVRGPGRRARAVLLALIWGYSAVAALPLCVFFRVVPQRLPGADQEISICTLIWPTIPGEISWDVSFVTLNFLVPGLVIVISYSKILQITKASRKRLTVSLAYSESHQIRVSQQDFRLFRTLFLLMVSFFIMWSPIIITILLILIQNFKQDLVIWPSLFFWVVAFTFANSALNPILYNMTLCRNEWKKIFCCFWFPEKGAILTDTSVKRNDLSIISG

[3] = Stability in human liver microsomes assessed as parent compound remaining after 10 mins; assay type: ADME, microsome; conditions: read-out: Stability
[4] = Stability in mouse liver microsomes assessed as parent compound remaining after 10 mins; assay type: ADME, microsome; conditions: read-out: Stability
[5] = Stability in rat liver microsomes assessed as parent compound remaining after 10 mins; assay type: ADME, microsome; conditions: read-out: Stability
[6] = Protein binding in human plasma; assay type: ADME, cell-free; conditions: read-out: PPB (converted)
[7] = Protein binding in mouse plasma; assay type: ADME, cell-free; conditions: read-out: PPB (converted)
[8] = Protein binding in rat plasma; assay type: ADME, cell-free; conditions: read-out: PPB (converted)
[9] = Clearance in C57/black 6J mouse at 5 mg/kg, iv by LC-MS/MS method; assay type: ADME, organism-based; conditions: in vivo
[10] = Volume of distribution at steady state in C57/black 6J mouse at 5 mg/kg, iv by LC-MS/MS method; assay type: ADME, organism-based; conditions: in vivo, read-out: Vdss
[11] = Half life in C57/black 6J mouse at 20 mg/kg dosed as oral gavage by LC-MS/MS method; assay type: ADME, organism-based; conditions: in vivo
[12] = Cmax in C57/black 6J mouse at 20 mg/kg dosed as oral gavage by LC-MS/MS method; assay type: ADME, organism-based; set-up: dose 20 mg/kg, route oral; conditions: in vivo
[13] = AUClast in C57/black 6J mouse at 20 mg/kg dosed as oral gavage by LC-MS/MS method; assay type: ADME, organism-based; set-up: dose 20 mg/kg, route oral, time 0 - last; conditions: in vivo
[14] = (§1) Oral bioavailability in C57/black 6J mouse at 20 mg/kg by LC-MS/MS method; assay type: ADME, organism-based; conditions: C57/black 6J, in vivo
Mus musculus [15] = experiment: Antidiabetic activity in C57bl/6J mouse assessed as reduction in blood glucose level at 10 mg/kg, po dosed 30 mins before glucose challenge by intraperitoneal glucose tolerance test; assay type: functional, organism-based
Mus musculus [16] = experiment: Antidiabetic activity in C57bl/6J mouse assessed as reduction in blood glucose delta AUC level at 1 mg/kg, po dosed 30 mins before glucose challenge and measured 90 mins post glucose injection by intraperitoneal glucose tolerance test; assay type: functional; set-up: scale not given: the % may be the effect or the level left
Mus musculus [17] = experiment: Antidiabetic activity in C57bl/6J mouse assessed as reduction in blood glucose delta AUC level at 3 mg/kg, po dosed 30 mins before glucose challenge and measured 90 mins post glucose injection by intraperitoneal glucose tolerance test; assay type: functional; set-up: scale not given: the % may be the effect or the level left
Mus musculus [18] = experiment: Antidiabetic activity in C57bl/6J mouse assessed as reduction in blood glucose delta AUC level at 10 mg/kg, po dosed 30 mins before glucose challenge and measured 90 mins post glucose injection by intraperitoneal glucose tolerance test; assay type: functional; set-up: scale not given: the % may be the effect or the level left
Mus musculus [19] = experiment: Antidiabetic activity in C57bl/6J mouse assessed as reduction in blood glucose level at 1 to 10 mg/kg, po dosed 30 mins before glucose challenge by intraperitoneal glucose tolerance test; assay type: functional, organism-based
Mus musculus [20] = experiment: Antidiabetic activity in C57bl/6J mouse assessed as reduction in blood glucose delta AUC level at 1 to 10 mg/kg, po dosed 30 mins before glucose challenge by intraperitoneal glucose tolerance test; assay type: functional, organism-based
Mus musculus [21] = experiment: as §1; assay type: ADME, organism-based; conditions: in vivo

Structure (SMILES): Cc1c(CCC(=O)O)ccc(OCc2cnnn2-c2ccc(Cl)cc2)c1C
pEC50 [1]: < 5.30

Structure (SMILES): CCc1onc(-c2ccc(Cl)cc2)c1COc1ccc(CCC(=O)O)c(C)c1C
pEC50 [1]: 6.13
pEC50 [2]: 6.40
remaining at 10 min [3]: 66.3%
remaining at 10 min [4]: 50.2%
remaining at 10 min [5]: 45.6%

Structure (SMILES): Cc1c(CCC(=O)O)ccc(OCc2ccccc2-c2ccc(Cl)cc2)c1C
pEC50 [1]: 6.66

Structure (SMILES): Cc1c(CCC(=O)O)ccc(OCc2nccn2-c2ccc(Cl)cc2)c1C
pEC50 [1]: < 5.30

Structure (SMILES): O=C(O)CCc1cc(F)c(OCc2c(-c3ccc(C4CC4)cc3)noc2C(F)(F)F)c(F)c1
pEC50 [1]: 6.77

Structure (SMILES): Cc1c(CCC(=O)O)ccc(OCc2ccnn2-c2ccc(Cl)cc2)c1C
pEC50 [1]: 6.21
pEC50 [2]: 5.69

Structure (SMILES): Cc1c(CCC(=O)O)ccc(OCc2conc2-c2ccc(Cl)cc2)c1C
pEC50 [1]: 5.84
pEC50 [2]: 5.56

Structure (SMILES): COc1ccc(-c2noc(C(F)(F)F)c2COc2c(F)cc(CCC(=O)O)cc2F)cc1
pEC50 [1]: 5.95

Structure (SMILES): Cc1c(CCC(=O)O)ccc(OCc2c(-c3ccc(Cl)cc3)noc2-c2ccccc2)c1C
pEC50 [1]: 5.55

Structure (SMILES): Cc1cc(OCc2c(-c3ccc(Cl)cc3)noc2C(F)(F)F)c(F)cc1CCC(=O)O
pEC50 [1]: 6.39

Structure (SMILES): Cc1c(CCC(=O)O)ccc(OCc2ncoc2-c2ccc(Cl)cc2)c1C
pEC50 [1]: 5.76

Structure (SMILES): Cc1c(CCC(=O)O)ccc(OCc2c(-c3ccc(Cl)cc3)noc2C(F)(F)F)c1C
pEC50 [1]: 6.17
pEC50 [2]: 6.80
remaining at 10 min [3]: 80.9%
remaining at 10 min [4]: 91.2%
remaining at 10 min [5]: 68%

Structure (SMILES): CCc1ccc(-n2nccc2COc2ccc(CCC(=O)O)c(C)c2C)cc1
pEC50 [1]: 6.28
pEC50 [2]: 5.94

Structure (SMILES): O=C(O)CCc1cc(F)c(OCc2c(-c3ccc(C(F)(F)F)cc3)noc2C(F)(F)F)c(F)c1
pEC50 [1]: 6.47
pEC50 [2]: 6.72

Structure (SMILES): Cc1noc(-c2ccc(Cl)cc2)c1COc1ccc(CCC(=O)O)c(C)c1C
pEC50 [1]: 6.46
pEC50 [2]: 6.09

Structure (SMILES): CCCc1onc(-c2ccc(Cl)cc2)c1COc1ccc(CCC(=O)O)c(C)c1C
pEC50 [1]: 5.97
pEC50 [2]: 6.89
remaining at 10 min [3]: 79.3%
remaining at 10 min [4]: 48.3%
remaining at 10 min [5]: 38.4%

Structure (SMILES): Cc1c(CCC(=O)O)ccc(OCc2csnc2-c2ccc(Cl)cc2)c1C
pEC50 [1]: 6.66

Structure (SMILES): Cc1c(CCC(=O)O)ccc(OCc2c(-c3ccc(Cl)cc3)noc2C2CC2)c1C
pEC50 [1]: 5.97
pEC50 [2]: 5.96

Structure (SMILES): Cc1onc(-c2ccc(Cl)cc2)c1COc1ccc(CCC(=O)O)c(C)c1C
pEC50 [1]: 6.57
pEC50 [2]: 6.12

Structure (SMILES): O=C(O)CCc1cc(F)c(OCc2c(-c3ccccc3)noc2C(F)(F)F)c(F)c1
pEC50 [1]: 6.77
pEC50 [2]: 7.16
remaining at 10 min [3]: 95.6%
remaining at 10 min [4]: 93%
remaining at 10 min [5]: 110%
fraction unbound [6]: 0.0017
fraction unbound [7]: 0.0047
fraction unbound [8]: 0.0122
Vd [10]: 0.336 L/kg
half-life [11]: 2.58 h
F (Mus musculus [21]): 49.5%

Structure (SMILES): CCc1ccc(-c2sncc2COc2ccc(CCC(=O)O)c(C)c2C)cc1
pEC50 [1]: 6.72

Structure (SMILES): Cc1c(CCC(=O)O)ccc(OCc2nnnn2-c2ccc(Cl)cc2)c1C
pEC50 [1]: < 5.30

Structure (SMILES): O=C(O)CCc1ccc(OCc2c(-c3ccc(Cl)cc3)noc2C(F)(F)F)cc1C(F)(F)F
pEC50 [1]: 5.84

Structure (SMILES): O=C(O)CCc1ccc(OCc2c(-c3ccc(Cl)cc3)noc2C(F)(F)F)c(F)c1F
pEC50 [1]: 6.17
pEC50 [2]: 6.85
remaining at 10 min [3]: 99.6%
remaining at 10 min [4]: 109%
remaining at 10 min [5]: 106%

Molecules with a higher pEC50 [1], results first:

pEC50 [1]: 6.80
pEC50 [2]: 6.05
Structure (SMILES): CCc1ccc(-c2ccsc2COc2ccc(CCC(=O)O)c(C)c2C)cc1

pEC50 [1]: 6.82
Structure (SMILES): O=C(O)CCc1ccc(OCc2c(-c3ccccc3)noc2C(F)(F)F)cc1

pEC50 [1]: 6.82
pEC50 [2]: 6.64
remaining at 10 min [3]: 103%
remaining at 10 min [4]: 119%
remaining at 10 min [5]: 66.2%
Structure (SMILES): O=C(O)CCc1cc(F)c(OCc2c(-c3ccc(F)cc3)noc2C(F)(F)F)c(F)c1

pEC50 [1]: 6.84
pEC50 [2]: 6.03
Structure (SMILES): Cc1c(CCC(=O)O)ccc(OCc2cccn2-c2ccc(Cl)cc2)c1C

pEC50 [1]: 6.85
Structure (SMILES): CCc1ccc(-c2cscc2COc2ccc(CCC(=O)O)c(C)c2C)cc1

pEC50 [1]: 6.92
pEC50 [2]: 6.74
remaining at 10 min [3]: 64.4%
remaining at 10 min [4]: 84.5%
remaining at 10 min [5]: 37.9%
Structure (SMILES): Cc1ccc(-c2noc(C(F)(F)F)c2COc2c(F)cc(CCC(=O)O)cc2F)cc1

pEC50 [1]: 6.92
remaining at 10 min [3]: 105%
remaining at 10 min [4]: 94.1%
remaining at 10 min [5]: 72.3%
Structure (SMILES): O=C(O)CCc1cc(F)c(OCc2c(-c3ccc(Br)cc3)noc2C(F)(F)F)c(F)c1

pEC50 [1]: 6.96
pEC50 [2]: 6.80
remaining at 10 min [3]: 93%
remaining at 10 min [4]: 86.3%
remaining at 10 min [5]: 54.3%
Structure (SMILES): Cc1ccc(-c2noc(C(F)(F)F)c2COc2c(F)cc(CC(C)C(=O)O)cc2F)cc1 (centres undefined)

pEC50 [1]: 7.00
pEC50 [2]: 6.12
Structure (SMILES): CCc1ccc(-n2cccc2COc2ccc(CCC(=O)O)c(C)c2C)cc1

pEC50 [1]: 7.09
Structure (SMILES): Cc1c(CCC(=O)O)ccc(OCc2scnc2-c2ccc(Cl)cc2)c1C

pEC50 [1]: 7.15
pEC50 [2]: 6.80
remaining at 10 min [3]: 113%
remaining at 10 min [4]: 105%
remaining at 10 min [5]: 98.9%
fraction unbound [6]: 0.0007
fraction unbound [7]: 0.0014
fraction unbound [8]: 0.0019
clearance [9]: 7.18 mL/min/kg
Vd [10]: 1.26 L/kg
half-life [11]: 2.07 h
Cmax [12]: 12700 ng/mL
AUC(0-t) [13]: 43200 ng·h/mL
bioavailability [14]: 93%
Structure (SMILES): O=C(O)CCc1cc(F)c(OCc2c(-c3ccc(Cl)cc3)noc2C(F)(F)F)c(F)c1
Activity (Mus musculus [15]): Active
Activity (Mus musculus [16]): 20%
Activity (Mus musculus [17]): 23%
Activity (Mus musculus [18]): -56%

pEC50 [1]: 7.15
pEC50 [2]: 6.54
remaining at 10 min [3]: 108%
remaining at 10 min [4]: 99.3%
remaining at 10 min [5]: 92%
Structure (SMILES): O=C(O)CCc1cc(F)c(OCc2c(-c3ccc(F)cc3Cl)noc2C(F)(F)F)c(F)c1

pEC50 [1]: 7.24
pEC50 [2]: 7.22
fraction unbound [6]: 0.0006
fraction unbound [7]: 0.0008
fraction unbound [8]: 0.0011
clearance [9]: 27.1 mL/min/kg
Vd [10]: 0.898 L/kg
half-life [11]: 1.03 h
Cmax [12]: 7670 ng/mL
AUC(0-t) [13]: 9660 ng·h/mL
bioavailability [14]: 78.7%
Structure (SMILES): CCc1ccc(-c2noc(C(F)(F)F)c2COc2c(F)cc(CCC(=O)O)cc2F)cc1
Activity (Mus musculus [19]): Dose-dependent effect
Activity (Mus musculus [20]): Dose-dependent effect
Activity (Mus musculus [16]): 30%
Activity (Mus musculus [17]): -35%
Activity (Mus musculus [18]): -54%
